Each structure is given as a SMILES string.

The target in this assay is T1, sodium ion channel (Nav1.7) (Homo sapiens, UniProt Q15858).
T1 construct: host or cells: HEK293
T1 sequence (Q15858 whole entry): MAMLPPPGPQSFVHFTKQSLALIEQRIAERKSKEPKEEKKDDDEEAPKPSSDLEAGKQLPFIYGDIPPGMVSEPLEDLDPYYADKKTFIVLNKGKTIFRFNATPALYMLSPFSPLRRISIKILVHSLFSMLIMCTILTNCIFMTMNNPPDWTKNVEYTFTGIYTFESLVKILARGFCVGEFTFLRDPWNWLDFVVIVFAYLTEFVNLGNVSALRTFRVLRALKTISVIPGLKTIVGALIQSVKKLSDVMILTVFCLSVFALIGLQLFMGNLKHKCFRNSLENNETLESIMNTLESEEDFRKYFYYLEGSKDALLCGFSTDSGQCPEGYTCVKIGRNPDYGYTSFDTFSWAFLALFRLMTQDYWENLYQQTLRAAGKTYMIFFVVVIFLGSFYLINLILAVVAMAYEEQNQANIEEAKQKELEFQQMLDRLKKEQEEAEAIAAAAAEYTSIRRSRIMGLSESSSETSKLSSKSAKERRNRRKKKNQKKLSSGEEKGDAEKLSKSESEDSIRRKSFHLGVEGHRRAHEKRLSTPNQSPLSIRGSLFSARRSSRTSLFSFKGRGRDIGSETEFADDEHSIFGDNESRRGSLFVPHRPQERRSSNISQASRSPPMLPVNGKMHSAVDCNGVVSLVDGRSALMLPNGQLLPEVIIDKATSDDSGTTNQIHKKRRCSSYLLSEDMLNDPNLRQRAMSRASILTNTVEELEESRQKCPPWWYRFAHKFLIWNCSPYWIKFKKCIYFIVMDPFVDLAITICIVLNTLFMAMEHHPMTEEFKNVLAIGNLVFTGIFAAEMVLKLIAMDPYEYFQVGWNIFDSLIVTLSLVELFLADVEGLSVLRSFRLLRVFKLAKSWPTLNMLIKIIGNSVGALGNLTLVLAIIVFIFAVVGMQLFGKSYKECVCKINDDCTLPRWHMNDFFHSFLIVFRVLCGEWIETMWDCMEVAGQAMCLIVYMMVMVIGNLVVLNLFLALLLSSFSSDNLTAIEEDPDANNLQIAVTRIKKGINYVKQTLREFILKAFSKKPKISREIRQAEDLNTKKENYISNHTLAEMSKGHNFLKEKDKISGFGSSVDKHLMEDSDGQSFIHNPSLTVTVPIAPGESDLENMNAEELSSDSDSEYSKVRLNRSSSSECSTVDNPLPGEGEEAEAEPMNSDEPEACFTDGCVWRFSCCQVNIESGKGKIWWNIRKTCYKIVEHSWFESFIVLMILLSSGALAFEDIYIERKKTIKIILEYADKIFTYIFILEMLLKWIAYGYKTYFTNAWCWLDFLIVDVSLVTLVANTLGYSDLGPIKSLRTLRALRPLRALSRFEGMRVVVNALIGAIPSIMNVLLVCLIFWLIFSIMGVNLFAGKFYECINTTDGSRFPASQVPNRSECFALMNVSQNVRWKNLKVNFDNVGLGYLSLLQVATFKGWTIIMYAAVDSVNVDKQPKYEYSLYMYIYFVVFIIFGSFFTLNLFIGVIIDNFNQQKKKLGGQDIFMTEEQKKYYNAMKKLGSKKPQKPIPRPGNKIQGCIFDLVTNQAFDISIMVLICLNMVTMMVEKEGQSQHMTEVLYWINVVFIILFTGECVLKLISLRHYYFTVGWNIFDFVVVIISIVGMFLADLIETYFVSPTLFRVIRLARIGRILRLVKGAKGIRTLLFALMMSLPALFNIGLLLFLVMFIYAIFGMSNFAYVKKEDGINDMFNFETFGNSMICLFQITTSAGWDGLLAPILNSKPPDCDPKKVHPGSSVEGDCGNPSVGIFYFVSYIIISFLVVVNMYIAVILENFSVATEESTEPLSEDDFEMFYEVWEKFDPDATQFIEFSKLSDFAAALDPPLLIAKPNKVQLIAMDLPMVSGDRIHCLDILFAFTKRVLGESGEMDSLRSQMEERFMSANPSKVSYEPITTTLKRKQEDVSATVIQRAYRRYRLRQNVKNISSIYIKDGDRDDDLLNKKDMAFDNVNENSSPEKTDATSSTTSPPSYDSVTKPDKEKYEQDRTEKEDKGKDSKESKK
Briefly: Blocking effect against sodium ion channel (Nav1.7), IonFlux16 auto patch clamp, hNav1.7 HEK293 cells. The format is cell-based. As to conditions: peak current after 50 seconds treatment, eight concentrations. Put shortly:
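HEK293 cells stably expressing human Nav1.7 were recorded by IonFlux16 automated patch clamp in extracellular solution (pH 7.45, final DMSO ≤0.3%). Peak current was measured after 50 s exposure to each of eight compound concentrations and expressed as percent inhibition relative to pre-compound current.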
On to `Cn1cc(-c2nc(-c3cccc(F)c3)ccc2Oc2ccc(S(=O)(=O)Nc3nccs3)cc2C#N)cn1` [Example 122, 3-cyano-4-((6-(3-fluorophenyl)-2-(1-methyl-1H-pyrazol-4-yl)pyridin-3-yl)oxy)-N-(thiazol-2-yl)benzenesulfonamide], for which the IC50 lay within 51 to 100 nM.
For `N#Cc1cc(S(=O)(=O)Nc2nccs2)ccc1Oc1cnc(-c2cccnc2F)cc1-c1ccoc1` [Example 10, 3-cyano-4-(2′-fluoro-4-(furan-3-yl)-2,3′-bipyridin-5-yloxy)-N-(thiazol-2-yl)benzenesulfonamide], the 50% inhibitory concentration (IC50) lay within 51 to 100 nM.
As to `Cn1nccc1-c1cc(-c2cccnc2F)ncc1Oc1ccc(S(=O)(=O)Nc2nccs2)cc1C#N` [Example 18, 3-cyano-4-((2′-fluoro-4-(1-methyl-1H-pyrazol-5-yl)-[2,3′-bipyridin]-5-yl)oxy)-N-(thiazol-2-yl)benzenesulfonamide], the IC50 was greater than 100 nM.
Under `N#Cc1cc(S(=O)(=O)Nc2nccs2)ccc1Oc1cnc(-c2ccccc2F)cc1-c1ccoc1` [Example 6, 3-cyano-4-(6-(2-fluorophenyl)-4-(furan-3-yl)pyridin-3-yloxy)-N-(thiazol-2-yl)benzenesulfonamide] stands greater than 100 nM.
In the case of `O=S(=O)(Nc1nccs1)c1ccc(C(O)c2cccnc2-c2ccoc2)cc1` (centres unmarked) [Example 156, 4-((2-(furan-3-yl)pyridin-3-yl)(hydroxy)methyl)-N-(thiazol-2-yl)benzenesulfonamide], the IC50 is greater than 100 nM.
Turning to `Cn1nccc1-c1cc(Cl)ccc1C(O)c1ccc(S(=O)(=O)Nc2nccs2)cc1` (centres unmarked) [Example 138, 4-((4-chloro-2-(1-methyl-1H-pyrazol-5-yl)phenyl)(hydroxy)methyl)-N-(thiazol-2-yl)benzenesulfonamide], the IC50 was greater than 100 nM.
In turn, `Cn1nccc1-c1cc(-c2ccsc2)ncc1Oc1ccc(S(=O)(=O)Nc2nccs2)cc1F` [Example 22, 3-fluoro-4-((4-(1-methyl-1H-pyrazol-5-yl)-6-(thiophen-3-yl)pyridin-3-yl)oxy)-N-(thiazol-2-yl)benzenesulfonamide] had an IC50 of 51 to 100 nM.
Consider `Cn1cc(-c2nc(-c3cccnc3F)ccc2Oc2ccc(S(=O)(=O)Nc3nccs3)cc2C#N)cn1` [Example 123, 3-cyano-4-((2′-fluoro-6-(1-methyl-1H-pyrazol-4-yl)-[2,3′-bipyridin]-5-yl)oxy)-N-(thiazol-2-yl)benzenesulfonamide], for which the IC50 is greater than 100 nM.
With `N#Cc1cc(S(=O)(=O)Nc2cscn2)ccc1Oc1cnc(-c2ccc(C(F)(F)F)c(F)c2)cc1-c1cncnc1` [Example 94, 3-cyano-4-((6-(3-fluoro-4-(trifluoromethyl)phenyl)-4-(pyrimidin-5-yl)pyridin-3-yl)oxy)-N-(thiazol-4-yl)benzenesulfonamide], the IC50 was greater than 100 nM.
For `O=S(=O)(Nc1nccs1)c1ccc(Oc2cnc(-c3ccoc3)cc2-c2ccoc2)cc1` [Example 28, 4-((4,6-di(furan-3-yl)pyridin-3-yl)oxy)-N-(thiazol-2-yl)benzenesulfonamide] the value was greater than 100 nM; for `N#Cc1cc(S(=O)(=O)Nc2nccs2)ccc1Oc1cnc(-c2ccccc2)cc1-c1ccncc1` [Example 40, 3-cyano-4-((6-phenyl-[4,4′-bipyridin]-3-yl)oxy)-N-(thiazol-2-yl)benzenesulfonamide], greater than 100 nM.
As for `N#Cc1cc(S(=O)(=O)Nc2nccs2)ccc1Oc1ccc(-c2ccc(F)nc2)nc1-c1ccoc1` [Example 104, 3-cyano-4-((6′-fluoro-6-(furan-3-yl)-[2,3′-bipyridin]-5-yl)oxy)-N-(thiazol-2-yl)benzenesulfonamide], the IC50 was 51 to 100 nM.
In the case of `N#Cc1cc(S(=O)(=O)Nc2cscn2)ccc1Oc1cnc(-c2cccc(F)c2)cc1-c1cn[nH]c1` [Example 83, 3-cyano-4-((6-(3-fluorophenyl)-4-(1H-pyrazol-4-yl)pyridin-3-yl)oxy)-N-(thiazol-4-yl)benzenesulfonamide], the IC50 was greater than 100 nM.
For `O=S(=O)(Nc1cscn1)c1cc(Cl)c(Oc2cnc(-c3cccc(F)c3)cc2-c2cn[nH]c2)cc1F` [Example 78, 5-chloro-2-fluoro-4-((6-(3-fluorophenyl)-4-(1H-pyrazol-4-yl)pyridin-3-yl)oxy)-N-(thiazol-4-yl)benzenesulfonamide] the value was greater than 100 nM; for `O=S(=O)(Nc1cscn1)c1cc(Cl)c(Oc2ccc(-c3ccnc(F)c3)nc2-c2ccoc2)cc1F` [Example 132, 5-chloro-2-fluoro-4-((2′-fluoro-6-(furan-3-yl)-[2,4′-bipyridin]-5-yl)oxy)-N-(thiazol-4-yl)benzenesulfonamide], greater than 100 nM; for `Cn1nccc1-c1nc(-c2ccc(F)nc2F)ccc1Oc1cc(F)c(S(=O)(=O)Nc2cscn2)cc1Cl` [Example 134, 5-chloro-4-((2′,6′-difluoro-6-(1-methyl-1H-pyrazol-5-yl)-[2,3′-bipyridin]-5-yl)oxy)-2-fluoro-N-(thiazol-4-yl)benzenesulfonamide], greater than 100 nM.
In turn, `N#Cc1cc(S(=O)(=O)Nc2nccs2)ccc1Oc1cnc(-c2cncnc2)cc1-c1ccoc1` [Example 15, 3-cyano-4-(4-(furan-3-yl)-6-(pyrimidin-5-yl)pyridin-3-yloxy)-N-(thiazol-2-yl)benzenesulfonamide] showed an IC50 greater than 100 nM.
`Cn1cc(-c2cc(-c3ccnc(F)c3)ncc2Oc2cc(F)c(S(=O)(=O)Nc3cscn3)cc2Cl)cn1` [Example 68, 5-chloro-2-fluoro-4-((2′-fluoro-4-(1-methyl-1H-pyrazol-4-yl)-[2,4′-bipyridin]-5-yl)oxy)-N-(thiazol-4-yl)benzenesulfonamide 2,2,2-trifluoroacetate] registered an IC50 greater than 100 nM.
For `N#Cc1cc(S(=O)(=O)Nc2cscn2)ccc1Oc1cnc(-c2ccc(C(F)(F)F)c(F)c2)cc1-c1cccnc1` [Example 86, 3-cyano-4-((6′-(3-fluoro-4-(trifluoromethyl)phenyl)-[3,4′-bipyridin]-3′-yl)oxy)-N-(thiazol-4-yl)benzenesulfonamide] the value was greater than 100 nM; for `O=S(=O)(Nc1cscn1)c1cc(Cl)c(Oc2cnc(-c3cccc(F)c3)cc2-c2cncc(N3CCCC3)c2)cc1F` [Example 99, 5-chloro-2-fluoro-4-((6′-(3-fluorophenyl)-5-(pyrrolidin-1-yl)-[3,4′-bipyridin]-3′-yl)oxy)-N-(thiazol-4-yl)benzenesulfonamide], greater than 100 nM.
For the compound `Cn1nccc1-c1nc(-c2cccc(F)c2)ccc1Oc1ccc(S(=O)(=O)Nc2nccs2)cc1C#N` [Example 117, 3-cyano-4-((6-(3-fluorophenyl)-2-(1-methyl-1H-pyrazol-5-yl)pyridin-3-yl)oxy)-N-(thiazol-2-yl)benzenesulfonamide], the IC50 is 51 to 100 nM.
For the compound `Cn1nccc1-c1cc(-c2ccnc(F)c2)ncc1Oc1ccc(S(=O)(=O)Nc2nccs2)cc1C#N` [Example 27, 3-cyano-4-((2′-fluoro-4-(1-methyl-1H-pyrazol-5-yl)-[2,4′-bipyridin]-5-yl)oxy)-N-(thiazol-2-yl)benzenesulfonamide], the IC50 is greater than 100 nM.
`O=S(=O)(Nc1nccs1)c1ccc(C(O)c2ccc(-c3ccoc3)cc2-c2ccoc2)c(F)c1` (centres unmarked) [Example 141, 4-((2,4-di(furan-3-yl)phenyl)(hydroxy)methyl)-3-fluoro-N-(thiazol-2-yl)benzenesulfonamide]: the IC50 was greater than 100 nM.
For `Cn1nccc1-c1ccccc1C(O)c1ccc(S(=O)(=O)Nc2nccs2)cc1F` (centres unmarked) [Example 142, 3-fluoro-4-(hydroxy(2-(1-methyl-1H-pyrazol-5-yl)phenyl)methyl)-N-(thiazol-2-yl)benzenesulfonamide] the value was greater than 100 nM; for `Cn1nccc1-c1nc(-c2ccccc2F)ccc1Oc1cc(F)c(S(=O)(=O)Nc2cscn2)cc1Cl` [Example 136, 5-chloro-2-fluoro-4-((6-(2-fluorophenyl)-2-(1-methyl-1H-pyrazol-5-yl)pyridin-3-yl)oxy)-N-(thiazol-4-yl)benzenesulfonamide], greater than 100 nM; for `N#Cc1cc(S(=O)(=O)Nc2nccs2)ccc1Oc1cnc(-c2ccccc2)cc1-c1ccoc1` [Example 1, 3-cyano-4-(4-(furan-3-yl)-6-phenylpyridin-3-yloxy)-N-(thiazol-2-yl)benzenesolfonamide], less than 50 nM.
The compound `N#Cc1cc(S(=O)(=O)Nc2nccs2)ccc1Oc1ccc(-c2ccoc2)nc1-c1ccoc1` [Example 114, 3-cyano-4-((2,6-di(furan-3-yl)pyridin-3-yl)oxy)-N-(thiazol-2-yl)benzenesulfonamide] displayed an IC50 greater than 100 nM.
In the case of `O=S(=O)(Nc1cscn1)c1cc(Cl)c(Oc2cnc(-c3ccc(F)nc3)cc2-c2ccoc2)cc1F` [Example 57, 5-chloro-2-fluoro-4-((6′-fluoro-4-(furan-3-yl)-[2,3′-bipyridin]-5-yl)oxy)-N-(thiazol-4-yl)benzenesulfonamide], the concentration for half-maximal inhibition (IC50) was greater than 100 nM.
Compound `N#Cc1cc(S(=O)(=O)Nc2nccs2)ccc1Oc1cnc(-c2ccccc2)cc1-c1csc(C2CC2)n1` [Example 43, 3-cyano-4-((4-(2-cyclopropylthiazol-4-yl)-6-phenylpyridin-3-yl)oxy)-N-(thiazol-2-yl)benzenesulfonamide] registered an IC50 greater than 100 nM.
The compound `O=S(=O)(Nc1cscn1)c1cc(Cl)c(Oc2cnc(-c3ccc(F)nc3F)cc2-c2ccoc2)cc1F` [Example 58, 5-chloro-4-((2′,6′-difluoro-4-(furan-3-yl)-[2,3′-bipyridin]-5-yl)oxy)-2-fluoro-N-(thiazol-4-yl)benzenesulfonamide] gave an IC50 greater than 100 nM.
Compound `N#Cc1cc(S(=O)(=O)Nc2nccs2)ccc1Oc1cnc(-c2ccccc2)cc1-c1cccnc1F` [Example 29, 3-cyano-4-((2-fluoro-6′-phenyl-[3,4′-bipyridin]-3′-yl)oxy)-N-(thiazol-2-yl)benzenesulfonamide] had an IC50 greater than 100 nM.
`N#Cc1cc(S(=O)(=O)Nc2nccs2)ccc1Oc1ccc(-c2cccc(F)c2)nc1-c1ccoc1` [Example 110, 3-cyano-4-((6-(3-fluorophenyl)-2-(furan-3-yl)pyridin-3-yl)oxy)-N-(thiazol-2-yl)benzenesulfonamide] displayed an IC50 of less than 50 nM.

(Values after patent publication US9376429B2, “Sodium channel blockers, preparation method thereof and use thereof” (Daewoong Pharmaceutical Co., Ltd., priority 2012, dated 2016).)
